Like-named read-outs stand apart in the source and are kept apart here.
Assays:
[1] = molecular target: T1, FGF14:Nav1.6 C-tail complex (Homo sapiens, UniProt Q92915+Q9UQD0); experiment: Split-luciferase complementation assay (LCA) in Clone V double stable HEK293 cells; assay type: cell-based; conditions: for Z-score (LCA primary screening): 30 µM, average of primary screening (n = 2), vs on-plate 0.3% DMSO; for Split Luciferase Assay % Lum Set 1 / Split Luciferase Assay Z-score Set 1: biological replicate Set 1; for Split Luciferase Assay % Lum Set 1 / Split Luciferase Assay %Lum Set 2: normalized to on-plate 0.3% DMSO controls (n=16 per plate); for Split Luciferase Assay Z-score Set 1 / Split Luciferase Assay Z-score Set 2: normalized to on-plate 0.3% DMSO controls; for Split Luciferase Assay Z-score Set 2 / Split Luciferase Assay %Lum Set 2: biological replicate Set 2; for Split Luciferase Assay %Lum Avg: average of Set 1 and Set 2, normalized to 0.3% DMSO controls
T1 construct: polymerase chain reaction (PCR) amplification of the FGF14 open reading frame (nt 1–855); C-terminal fragment of Nav1.6 (amino acids 1763–1976) fused with CD4ΔC-tail (amino acids 1–395); expressed in transfected cells

[2] = molecular target: full-length P. pyralis luciferase (Photinus pyralis, UniProt P08659, K549A/L550V/N119G/N50D/S548I); assay type: cell-based; conditions: for Luciferase Assay Z-score: full-length luciferase counter-screen
[3] = CC_NCI screening, LCA luminescence
[4] = CC_NCI screening, full-length luciferase counter-screen luminescence, normalized to on-plate 0.3% DMSO controls
[5] = CC_NCI screening, normalized to on-plate 0.3% DMSO controls

T1 sequence (Q92915 1-252 isoform Q92915-2): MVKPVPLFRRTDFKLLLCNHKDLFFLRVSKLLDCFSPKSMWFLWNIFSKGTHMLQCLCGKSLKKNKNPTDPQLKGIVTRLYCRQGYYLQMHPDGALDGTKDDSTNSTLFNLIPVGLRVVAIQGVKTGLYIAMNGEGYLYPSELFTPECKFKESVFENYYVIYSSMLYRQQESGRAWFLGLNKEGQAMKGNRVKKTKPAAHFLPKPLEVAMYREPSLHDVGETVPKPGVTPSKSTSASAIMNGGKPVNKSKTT
T1 sequence (Q9UQD0 1763-1976 limits assumed): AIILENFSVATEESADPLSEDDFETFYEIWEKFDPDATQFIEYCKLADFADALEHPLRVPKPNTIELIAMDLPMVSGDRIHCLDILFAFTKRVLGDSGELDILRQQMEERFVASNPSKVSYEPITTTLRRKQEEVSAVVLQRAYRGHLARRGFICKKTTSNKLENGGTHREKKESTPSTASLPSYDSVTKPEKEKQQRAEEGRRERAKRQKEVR
Chain of full-length P. pyralis luciferase (P08659 whole entry N50D/N119G/S548I/K549A/L550V, looked up): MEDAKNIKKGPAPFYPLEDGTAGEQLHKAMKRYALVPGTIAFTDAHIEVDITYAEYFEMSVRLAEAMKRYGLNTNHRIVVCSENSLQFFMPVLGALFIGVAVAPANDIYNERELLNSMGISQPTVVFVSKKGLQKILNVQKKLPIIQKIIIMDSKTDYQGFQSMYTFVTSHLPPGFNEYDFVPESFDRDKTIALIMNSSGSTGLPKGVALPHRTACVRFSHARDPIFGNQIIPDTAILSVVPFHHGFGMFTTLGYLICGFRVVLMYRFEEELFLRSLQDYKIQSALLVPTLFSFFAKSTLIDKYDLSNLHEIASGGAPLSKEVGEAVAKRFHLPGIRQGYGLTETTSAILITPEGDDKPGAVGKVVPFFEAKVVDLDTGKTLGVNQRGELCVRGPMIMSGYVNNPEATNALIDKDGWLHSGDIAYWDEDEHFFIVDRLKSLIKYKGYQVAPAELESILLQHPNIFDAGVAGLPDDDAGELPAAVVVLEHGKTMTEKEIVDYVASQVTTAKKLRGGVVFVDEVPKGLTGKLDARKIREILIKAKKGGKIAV

| Compound | Split Luciferase Assay % Lum Set 1 [1, 3] | Split Luciferase Assay Z-score Set 1 ([1]; CC_NCI screening, LCA) | Split Luciferase Assay Z-score Set 2 ([1]; CC_NCI screening, LCA) | Split Luciferase Assay %Lum Avg ([1]; CC_NCI screening) | Luciferase Assay % Lum [2, 4] | Luciferase Assay Z-score [2, 5] | Toxicity Assay % Fluor (Clone V cells; human, 16 h, 30 µM) | Toxicity Assay Z-score (Clone V cells; human, 16 h, 30 µM) | Split Luciferase Assay %Lum Set 2 [1, 3] | Toxicity Assay % Fluor (Clone V cells) | Toxicity Assay Z-score (Clone V cells) | further results |
| --- | --- | --- | --- | --- | --- | --- | --- | --- | --- | --- | --- | --- |
| O=c1[nH]c(=O)n([C@H]2C[C@H](O)[C@@H](CO)O2)cc1F [Floxuridine, reference compound] | 154.69% | 4.42 | 3.04 | 146.01% | 100.29% | 0.04 | 90.13% | -1.38 |  |  |  | Z-score (LCA primary screening) ([1]; 384-well): 3.73; EMax (% Luminescence) ([1]; agonists, Clone V cells, 384-well, normalized to DMSO): 146.01 % Luminescence; EC50 ([1]; estimated, 8-point dose response 0.25-30 µM, n = 4 per concentration, library compounds, read-out: EC50): 2460 nM |
| Nc1nc(F)nc2c1ncn2[C@@H]1O[C@H](COP(=O)(O)O)[C@@H](O)[C@@H]1O [Fludarabine phosphate] | 112.30% | 0.99 | 1.60 | 115.97% | 119.94% | 2.55 | 95.37% | -0.65 | 119.64% |  |  |  |
| COC1=C2C[C@@H](C)C[C@H](OC)[C@H](O)[C@@H](C)/C=C(\C)[C@H](OC(N)=O)[C@@H](OC)/C=C\C=C(/C)C(=O)NC(=CC1=O)C2=O [GELDENAMYCIN] | 70.99% | -2.34 | -1.11 | 78.67% | 102.35% | 0.30 |  |  | 86.35% | 94.70% | -0.74 |  |
| CCc1cc(Nc2nccc(-c3c(-c4ccc(OC)c(C(=O)Nc5c(F)cccc5F)c4)nc4ccccn34)n2)c(OC)cc1N1CCC(N2CCN(S(C)(=O)=O)CC2)CC1 [GSK1904529A] | 116.65% | 1.35 | -0.60 | 104.62% | 86.97% | -1.67 |  |  | 92.59% | 100.76% | 0.11 |  |
| CCn1c(-c2nonc2N)nc2cnc(Oc3cccc(NC(=O)c4ccc(OCCN5CCOCC5)cc4)c3)cc21 [GSK 269962A] | 26.42% | -5.95 | -5.60 | 28.81% | 79.80% | -2.59 | 101.41% | 0.20 | 31.21% |  |  |  |
| Cn1cc(/C=C2\C(=O)Nc3cccnc32)c2ccccc21 [GW 441756] |  |  |  |  |  |  |  |  |  |  |  | Split Luciferase Assay Z-score Set 1 ([1]; CC_NCI screening): -0.50; Split Luciferase Assay % Lum Set 1 ([1]; CC_NCI screening): 93.82%; Split Luciferase Assay Z-score Set 2 ([1]; CC_NCI screening): -2.30; Split Luciferase Assay %Lum Set 2 ([1]; CC_NCI screening): 71.78%; Split Luciferase Assay %Lum Avg [1]: 82.80%; Luciferase Assay % Lum (full-length luciferase counter-screen) [2, 5]: 109.93%; Luciferase Assay Z-score (full-length luciferase counter-screen) [2, 5]: 1.27; Toxicity Assay % Fluor (CTB cell viability fluorescence) (Clone V cells): 107.67%; Toxicity Assay Z-score (CTB cell viability) (Clone V cells): 1.07 |
| COc1cc2ncn(-c3cc(OCc4ccccc4C(F)(F)F)c(C(N)=O)s3)c2cc1OC [GW 843682X] | 163.39% | 5.12 | 5.75 | 167.00% | 102.89% | 0.37 | 106.44% | 0.90 | 170.61% |  |  |  |
| COc1cc2ncnc(Nc3ccc(F)c(Cl)c3)c2cc1OCCCN1CCOCC1 [Gefitinib] | 97.08% | -0.24 | 0.24 | 100.03% |  |  | 87.95% | -1.68 | 102.99% |  |  | Luciferase Assay % Lum [2]: 85.80% |
| O=S(=O)(NCCNC/C=C/c1ccc(Br)cc1)c1cccc2cnccc12 [H-89, reference compound] | 14.46% | -6.91 | -6.70 | 16.07% | 80.98% | -2.44 |  |  | 17.69% | 91.80% | -1.15 | Z-score (LCA primary screening) ([1]; 384-well): −6.81; dose-response behavior of repurchased compounds ([1]; 10-point dose response 0.25-50 µM, Clone V cells): purely inhibitory effects; IMin (% Luminescence) ([1]; antagonists, Clone V cells, 384-well, normalized to DMSO): 16.07 % Luminescence; action toward the FGF14:Nav1.6 C-tail interaction ([1]; dose-dependency validation using fresh compound samples): acted as antagonists; IC50 ([1]; estimated, 8-point dose response 0.25-30 µM, n = 4 per concentration, library compounds, read-out: IC50): 12200 nM; IC50 ([1]; repurchased compounds, 10-point dose response 0.25-50 µM, n = 8 per concentration, Clone V cells, 384-well, read-out: in-cell IC50): 1900 nM |
| CCOC(=O)C1=C(N)Oc2ccc(Br)cc2C1C(C#N)C(=O)OCC (stereo not shown) [HA14-1] | 80.77% | -1.55 | -0.18 | 89.28% | 99.78% | -0.03 |  |  | 97.79% | 102.67% | 0.37 |  |
| NC(=O)NO [Hydroxyurea] |  |  |  |  |  |  |  |  |  |  |  | Split Luciferase Assay Z-score Set 1 ([1]; CC_NCI screening): -0.85; Split Luciferase Assay % Lum Set 1 ([1]; CC_NCI screening): 89.47%; Split Luciferase Assay Z-score Set 2 ([1]; CC_NCI screening): 1.01; Split Luciferase Assay %Lum Set 2 ([1]; CC_NCI screening): 112.35%; Split Luciferase Assay %Lum Avg [1]: 100.91%; Luciferase Assay % Lum (full-length luciferase counter-screen) [2, 5]: 102.60%; Luciferase Assay Z-score (full-length luciferase counter-screen) [2, 5]: 0.33; Toxicity Assay % Fluor (CTB cell viability fluorescence) (Clone V cells): 115.47%; Toxicity Assay Z-score (CTB cell viability) (Clone V cells): 2.16 |
| Cn1cc(CNCC2CCN(c3ncc(C(=O)NO)cn3)CC2)c2ccccc21 [JNJ-26481585] | 112.30% | 0.99 | 0.75 | 110.77% | 97.58% | -0.31 |  |  | 109.23% | 96.89% | -0.43 |  |
| O=c1[nH]nc(Sc2ncc([N+](=O)[O-])s2)n1-c1ccc2c(c1)OCCO2 [JNK INHIBITOR X] |  |  |  |  |  |  |  |  |  |  |  | Split Luciferase Assay Z-score Set 1 ([1]; CC_NCI screening): -7.97; Split Luciferase Assay % Lum Set 1 ([1]; CC_NCI screening): 1.41%; Split Luciferase Assay Z-score Set 2 ([1]; CC_NCI screening): -7.88; Split Luciferase Assay %Lum Set 2 ([1]; CC_NCI screening): 3.12%; Split Luciferase Assay %Lum Avg [1]: 2.27%; Luciferase Assay % Lum (full-length luciferase counter-screen) [2, 5]: 4.80%; Luciferase Assay Z-score (full-length luciferase counter-screen) [2, 5]: -12.19; Toxicity Assay % Fluor (CTB cell viability fluorescence) (Clone V cells): 82.79%; Toxicity Assay Z-score (CTB cell viability) (Clone V cells): -2.41 |

Reference: publication PMC6858373 (Scientific Reports, 2019)
